Results: patent US12421225B2, “Heteroaromatic amide derivative and medicament containing the same” (KAKEN PHARMACEUTICAL CO., LTD., priority 2018, dated 2025)

Tests used:
[1] = target: human Nav1.5 (Homo sapiens (Human), UniProt Q14524); experiment: Human Nav1.5 inhibitory activity evaluation (automated patch clamp QPatch16X, HEK293 cells stably expressing human Nav1.5); format: cell-based; conditions: human Nav1.5, automated patch clamp
Description: Test Example 2: Human Nav1.5 Inhibitory Activity Evaluation
A cell line in which human Nav1.5 was stably expressed in HEK293 cells was used. DMEM supplemeted with 15% fetal bovine serum, 500 μg/ml geneticin, 100 units/ml penicillin, 100 μg/ml streptomycin, 20 mM HEPES was used as culture medium under the conditions of 37° C. and 5% CO2 in T175 flasks to carry out culturing. When 60-80% confluence was reached, a cell suspension of about 0.5-5.0×10^6 cells/mL was prepared. The amount of current through human Nav1.5 was recorded using a fully automatic patch clamp device QPatch16X at room temperature. As the extracellular solution, 145 mM NaCl, 4 mM KCl, 1 mM MgCl2, 2 mM CaCl2, 10 mM Glucose, and 10 mM HEPES at pH 7.4 was used. As the intracellular solution, 135 mM CsF, ⅕ mM EGTA/CsOH, 10 mM HEPES, and 10 mM NaCl at pH 7.3 was used. The test compounds were dissolved in DMSO and diluted with the extracellular solution to attend the DMSO concentration of 0.1% at the time of assay.
The current response was obtained at a sampling frequency of 25 kHz, and noise was removed with a 3 kHz low-pass filter. The holding potential was −80 mV. Correction of the leakage current was carried out by applying a step pulse of −100 mV before the test pulse. In order to investigate human Nav1.5 inhibitory effect of the test compound, test pulses imitating the action potential of cardiomyocytes were continuously given 20 times. The test pulses were given before and after the test compound addition.
The inhibitory activity of the test compound was determined based on the amount of inward current generated by the 20th depolarization pulse, and the 50% inhibitory concentration (IC50) was calculated from the concentration-response curve.

[2] = target: human Nav1.7 (Homo sapiens (Human), UniProt Q15858); experiment: Human Nav1.7 inhibitory activity evaluation (automated patch clamp QPatch16X, HEK293A cells stably expressing human Nav1.7 and human Navβ1); format: cell-based; conditions: human Nav1.7, automated patch clamp
Procedure, shortened: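 IC50 calculated from the concentration-response of inward current evoked by the second −10 mV, 50 ms depolarisation, which follows a 15 s conditioning step at roughly 30-40% inactivation and a 100 ms −120 mV interval. Cells: HEK293A expressing human Nav1.7/Navβ1, automated patch clamp, room temperature, 0.1% DMSO final.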

Chain of human Nav1.5 (Q14524 whole entry): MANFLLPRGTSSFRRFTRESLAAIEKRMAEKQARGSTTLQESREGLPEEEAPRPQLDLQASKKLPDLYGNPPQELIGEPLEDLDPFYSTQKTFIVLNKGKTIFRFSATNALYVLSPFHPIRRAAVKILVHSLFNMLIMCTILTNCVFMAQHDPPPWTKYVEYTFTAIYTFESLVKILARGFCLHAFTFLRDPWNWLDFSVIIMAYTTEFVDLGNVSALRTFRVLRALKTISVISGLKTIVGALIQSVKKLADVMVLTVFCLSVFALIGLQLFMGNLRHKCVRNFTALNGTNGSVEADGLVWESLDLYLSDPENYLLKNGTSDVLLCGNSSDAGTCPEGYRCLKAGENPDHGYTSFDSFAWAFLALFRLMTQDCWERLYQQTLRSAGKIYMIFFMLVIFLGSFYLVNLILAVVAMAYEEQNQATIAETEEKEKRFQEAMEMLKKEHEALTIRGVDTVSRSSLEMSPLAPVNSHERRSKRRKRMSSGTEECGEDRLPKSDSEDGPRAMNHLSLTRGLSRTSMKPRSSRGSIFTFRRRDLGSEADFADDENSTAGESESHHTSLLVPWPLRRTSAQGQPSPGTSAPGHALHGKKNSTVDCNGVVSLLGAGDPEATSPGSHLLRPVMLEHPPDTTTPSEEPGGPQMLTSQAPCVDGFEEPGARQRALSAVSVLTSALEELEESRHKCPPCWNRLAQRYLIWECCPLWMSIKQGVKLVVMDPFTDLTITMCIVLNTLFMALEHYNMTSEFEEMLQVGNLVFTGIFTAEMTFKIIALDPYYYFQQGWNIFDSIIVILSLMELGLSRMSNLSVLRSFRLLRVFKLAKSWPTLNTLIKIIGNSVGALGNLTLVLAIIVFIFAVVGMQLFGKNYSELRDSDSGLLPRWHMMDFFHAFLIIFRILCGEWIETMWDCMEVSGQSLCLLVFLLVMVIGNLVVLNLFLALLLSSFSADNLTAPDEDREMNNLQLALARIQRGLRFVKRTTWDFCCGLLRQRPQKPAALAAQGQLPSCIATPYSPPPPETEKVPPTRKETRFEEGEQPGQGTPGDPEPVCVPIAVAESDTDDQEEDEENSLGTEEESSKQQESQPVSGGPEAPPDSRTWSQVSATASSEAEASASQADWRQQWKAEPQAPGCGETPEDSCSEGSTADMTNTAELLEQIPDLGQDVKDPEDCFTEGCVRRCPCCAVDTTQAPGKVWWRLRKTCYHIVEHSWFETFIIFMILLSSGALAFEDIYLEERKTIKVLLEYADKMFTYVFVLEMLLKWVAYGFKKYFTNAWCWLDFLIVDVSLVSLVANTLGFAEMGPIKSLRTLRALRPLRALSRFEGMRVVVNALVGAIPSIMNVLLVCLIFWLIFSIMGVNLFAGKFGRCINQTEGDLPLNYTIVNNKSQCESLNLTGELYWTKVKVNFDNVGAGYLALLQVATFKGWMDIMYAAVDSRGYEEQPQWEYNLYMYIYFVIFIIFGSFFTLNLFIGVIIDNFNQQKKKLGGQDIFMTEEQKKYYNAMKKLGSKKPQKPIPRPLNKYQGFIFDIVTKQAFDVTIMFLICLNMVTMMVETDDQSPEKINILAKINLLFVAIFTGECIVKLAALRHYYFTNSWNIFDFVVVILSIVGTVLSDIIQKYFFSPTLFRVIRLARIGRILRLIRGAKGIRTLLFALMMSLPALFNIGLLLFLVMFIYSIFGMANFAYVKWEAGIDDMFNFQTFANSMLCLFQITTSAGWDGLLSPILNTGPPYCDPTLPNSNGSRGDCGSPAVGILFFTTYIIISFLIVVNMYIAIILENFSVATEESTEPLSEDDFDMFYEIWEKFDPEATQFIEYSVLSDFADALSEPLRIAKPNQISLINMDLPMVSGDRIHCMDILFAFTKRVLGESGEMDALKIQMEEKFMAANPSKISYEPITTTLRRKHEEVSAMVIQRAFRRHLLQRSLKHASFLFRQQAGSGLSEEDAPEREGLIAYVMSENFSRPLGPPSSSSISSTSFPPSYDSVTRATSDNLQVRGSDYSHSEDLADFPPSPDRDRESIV
Chain of human Nav1.7 (Q15858 whole entry): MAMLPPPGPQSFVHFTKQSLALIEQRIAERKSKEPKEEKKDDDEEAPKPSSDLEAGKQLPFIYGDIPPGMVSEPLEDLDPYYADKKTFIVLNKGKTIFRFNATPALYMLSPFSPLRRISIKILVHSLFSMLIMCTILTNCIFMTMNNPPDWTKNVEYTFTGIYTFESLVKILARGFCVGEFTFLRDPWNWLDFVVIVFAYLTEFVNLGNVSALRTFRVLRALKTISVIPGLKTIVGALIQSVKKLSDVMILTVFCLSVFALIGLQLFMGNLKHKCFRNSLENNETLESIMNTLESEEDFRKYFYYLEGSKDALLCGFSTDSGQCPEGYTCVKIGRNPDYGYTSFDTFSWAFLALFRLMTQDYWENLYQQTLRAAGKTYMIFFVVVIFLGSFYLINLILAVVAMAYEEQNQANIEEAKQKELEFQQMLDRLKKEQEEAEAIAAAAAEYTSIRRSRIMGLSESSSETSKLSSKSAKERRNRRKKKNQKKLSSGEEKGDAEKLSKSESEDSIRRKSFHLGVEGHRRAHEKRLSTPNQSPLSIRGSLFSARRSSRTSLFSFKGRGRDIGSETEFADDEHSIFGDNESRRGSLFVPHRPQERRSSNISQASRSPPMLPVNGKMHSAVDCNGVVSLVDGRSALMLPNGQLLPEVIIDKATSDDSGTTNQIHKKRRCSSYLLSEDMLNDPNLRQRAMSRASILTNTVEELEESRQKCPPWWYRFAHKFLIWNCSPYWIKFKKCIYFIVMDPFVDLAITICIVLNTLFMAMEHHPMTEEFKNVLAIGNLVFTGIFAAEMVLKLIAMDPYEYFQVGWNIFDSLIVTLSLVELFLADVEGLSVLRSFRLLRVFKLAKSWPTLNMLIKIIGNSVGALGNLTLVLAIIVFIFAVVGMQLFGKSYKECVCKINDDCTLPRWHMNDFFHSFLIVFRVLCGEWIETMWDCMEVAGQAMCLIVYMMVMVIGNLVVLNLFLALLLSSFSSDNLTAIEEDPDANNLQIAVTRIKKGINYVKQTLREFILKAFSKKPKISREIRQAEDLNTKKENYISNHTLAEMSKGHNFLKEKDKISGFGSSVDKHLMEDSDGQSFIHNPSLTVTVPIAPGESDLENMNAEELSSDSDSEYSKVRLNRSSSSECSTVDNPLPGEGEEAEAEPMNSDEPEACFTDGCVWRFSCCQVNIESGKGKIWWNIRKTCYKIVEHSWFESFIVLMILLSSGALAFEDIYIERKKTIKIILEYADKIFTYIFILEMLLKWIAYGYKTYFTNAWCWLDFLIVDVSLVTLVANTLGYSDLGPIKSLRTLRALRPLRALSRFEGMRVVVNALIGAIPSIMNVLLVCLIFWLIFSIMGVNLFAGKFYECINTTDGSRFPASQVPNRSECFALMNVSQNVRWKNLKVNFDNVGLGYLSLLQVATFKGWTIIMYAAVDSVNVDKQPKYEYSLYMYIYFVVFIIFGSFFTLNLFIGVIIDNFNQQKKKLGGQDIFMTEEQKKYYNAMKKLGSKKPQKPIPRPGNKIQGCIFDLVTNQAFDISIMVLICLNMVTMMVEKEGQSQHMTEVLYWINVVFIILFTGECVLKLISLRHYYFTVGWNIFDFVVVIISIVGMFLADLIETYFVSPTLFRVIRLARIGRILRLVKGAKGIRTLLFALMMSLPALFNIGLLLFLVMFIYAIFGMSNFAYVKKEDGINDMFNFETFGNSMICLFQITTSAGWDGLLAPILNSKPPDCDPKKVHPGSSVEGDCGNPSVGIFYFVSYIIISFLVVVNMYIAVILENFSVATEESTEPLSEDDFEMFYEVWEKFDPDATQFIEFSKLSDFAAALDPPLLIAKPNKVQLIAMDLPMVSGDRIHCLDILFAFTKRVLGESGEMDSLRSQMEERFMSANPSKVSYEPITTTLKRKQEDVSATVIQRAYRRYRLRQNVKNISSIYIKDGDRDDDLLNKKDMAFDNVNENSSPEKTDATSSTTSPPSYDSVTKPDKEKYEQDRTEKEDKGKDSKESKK
Chain of human Nav1.7 (Q07699 19-218 partner): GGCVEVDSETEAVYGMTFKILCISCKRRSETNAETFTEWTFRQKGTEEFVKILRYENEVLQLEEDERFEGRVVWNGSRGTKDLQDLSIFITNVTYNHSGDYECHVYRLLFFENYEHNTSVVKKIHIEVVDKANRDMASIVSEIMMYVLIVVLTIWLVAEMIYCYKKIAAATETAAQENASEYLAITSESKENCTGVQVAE

Structure (SMILES)	IC50 [2] [nM]	IC50 [1] [nM]
N#Cc1ccc2c(c1)C[C@@H](NC(=O)c1cc3n(n1)CC(CSCC(F)(F)F)O3)CO2 (single isomer, unassigned) [200 (isomer A)]	< 10000	≥ 3000
O=C(N[C@H]1COc2ccc(CC(F)F)cc2C1)c1cc2n(n1)CC(CCOC(F)F)O2 (single isomer, unassigned) [219 (isomer A)]	< 10000	≥ 3000
Cn1cc(-c2ccc3c(c2)C[C@@H](NC(=O)c2cc4n(n2)CC(CCOC(F)F)O4)CO3)cn1 (single isomer, unassigned) [221 (isomer A)]	< 10000	≥ 3000
Cn1cc(-c2ccc3c(c2)C[C@@H](NC(=O)c2cc4n(n2)CC(CCOC(F)F)O4)CO3)cn1 (single isomer, unassigned) [221 (isomer B)]	< 1000	1000 to 3000
O=C(N[C@H]1COc2ccc(-c3cnccn3)cc2C1)c1cc2n(n1)CC(CCOC(F)F)O2 (single isomer, unassigned) [223 (isomer B)]	< 1000	1000 to 3000
O=C(N[C@H]1COc2ccc(COCC(F)(F)F)cc2C1)c1cc2n(n1)CC(CCOCC(F)F)O2 (single isomer, unassigned) [224 (isomer A)]	< 1000	≥ 3000
O=C(N[C@H]1COc2ccc(COCC(F)(F)F)cc2C1)c1cc2n(n1)CC(CCOCC(F)F)O2 (single isomer, unassigned) [224 (isomer B)]	< 1000	1000 to 3000
O=C(N[C@H]1COc2ccc(Cl)cc2C1)c1cc2n(n1)CC(CCNCC(F)(F)F)O2 (single isomer, unassigned) [226 (isomer A)]	< 1000	≥ 3000
O=C(N[C@H]1COc2ccc(Cl)cc2C1)c1cc2n(n1)CC(CCNCC(F)(F)F)O2 (single isomer, unassigned) [226 (isomer B)]	< 1000	1000 to 3000
Cc1ccc2c(c1)C[C@@H](NC(=O)c1cc3n(n1)CC(CCNCC(F)(F)F)O3)CO2 (single isomer, unassigned) [228 (isomer A)]	< 1000	≥ 3000
O=C(N[C@H]1COc2ccc(C(F)(F)F)cc2C1)c1cc2n(n1)CC(CCNCC(F)(F)F)O2 (single isomer, unassigned) [230 (isomer A)]	< 1000	≥ 3000
O=C(N[C@H]1COc2ccc(COCC(F)(F)F)cc2C1)c1cc2n(n1)CC(CCNCC(F)(F)F)O2 (single isomer, unassigned) [232 (isomer A)]	< 1000	1000 to 3000
O=C(N[C@H]1COc2ccc(COCC(F)(F)F)cc2C1)c1cc2n(n1)CC(CCNCC(F)(F)F)O2 (single isomer, unassigned) [232 (isomer B)]	< 1000	≥ 3000
O=C(N[C@H]1COc2ccc(Cl)cc2C1)c1cc2n(n1)CC(CCN1CC(F)(F)C1)O2 (single isomer, unassigned) [234 (isomer A)]	< 1000	≥ 3000
O=C(N[C@H]1COc2ccc(Cl)cc2C1)c1cc2n(n1)CC(CCN1CC(F)(F)C1)O2 (single isomer, unassigned) [234 (isomer B)]	< 1000	< 1000
O=C(N[C@H]1COc2ccc(C(F)(F)F)cc2C1)c1cc2n(n1)CC(CCN1CC(F)(F)C1)O2 (single isomer, unassigned) [236 (isomer B)]	< 1000	1000 to 3000
N#Cc1ccc2c(c1)C[C@@H](NC(=O)c1cc3n(n1)CC(CCSCC(F)(F)F)O3)CO2 (single isomer, unassigned) [244 (isomer B)]	< 1000	< 1000

More lines, main results first:

IC50 [2] [nM]	Structure (SMILES)	IC50 [1] [nM]
< 1000	O=C(N[C@H]1COc2ccc(COCC(F)(F)F)cc2C1)c1cc2n(n1)CC(COCC(F)(F)F)O2 (single isomer, unassigned) [188 (isomer A)]	< 1000
< 1000	O=C(N[C@H]1COc2ccc(COCC(F)(F)F)cc2C1)c1cc2n(n1)CC(COCC(F)(F)F)O2 (single isomer, unassigned) [188 (isomer B)]	≥ 3000
< 1000	O=C(N[C@H]1COc2ccc(CCOC(F)F)cc2C1)c1cc2n(n1)CC(COCC(F)(F)F)O2 (single isomer, unassigned) [190 (isomer A)]	≥ 3000
< 1000	Cc1cnc(-c2ccc3c(c2)C[C@@H](NC(=O)c2cc4n(n2)CC(COCC(F)(F)F)O4)CO3)cn1 (single isomer, unassigned) [194 (isomer B)]	≥ 3000
< 1000	O=C(N[C@H]1COc2ccc(COCC(F)(F)F)cc2C1)c1cc2n(n1)CC(COC(F)(F)F)O2 (single isomer, unassigned) [196 (isomer A)]	1000 to 3000
< 1000	O=C(N[C@H]1COc2ccc(COCC(F)(F)F)cc2C1)c1cc2n(n1)CC(COC(F)(F)F)O2 (single isomer, unassigned) [196 (isomer B)]	≥ 3000
< 1000	O=C(N[C@H]1COc2ccc(CC(F)F)cc2C1)c1cc2n(n1)CC(COC(F)(F)F)O2 (single isomer, unassigned) [198 (isomer B)]	≥ 3000
< 1000	N#Cc1ccc2c(c1)C[C@@H](NC(=O)c1cc3n(n1)CC(CSCC(F)(F)F)O3)CO2 (single isomer, unassigned) [200 (isomer B)]	≥ 3000
< 1000	N#Cc1ccc2c(c1)C[C@@H](NC(=O)c1cc3n(n1)CC(CCOCC1CC1)O3)CO2 (single isomer, unassigned) [202 (isomer A)]	≥ 3000
< 1000	N#Cc1ccc2c(c1)C[C@@H](NC(=O)c1cc3n(n1)CC(CCOCC1CC1)O3)CO2 (single isomer, unassigned) [202 (isomer B)]	< 1000
< 1000	COc1ncc(-c2ccc3c(c2)C[C@@H](NC(=O)c2cc4n(n2)CC(CCOCC2CC2)O4)CO3)cn1 (single isomer, unassigned) [204 (isomer B)]	1000 to 3000
< 1000	O=C(N[C@H]1COc2ccc(-c3ccccn3)cc2C1)c1cc2n(n1)CC(CCOCC(F)(F)F)O2 (single isomer, unassigned) [207 (isomer B)]	1000 to 3000
< 1000	N#Cc1ccc2c(c1)C[C@@H](NC(=O)c1cc3n(n1)CC(CCOC(F)(F)F)O3)CO2 (single isomer, unassigned) [209 (isomer B)]	< 1000
< 1000	Cn1ccc(-c2ccc3c(c2)C[C@@H](NC(=O)c2cc4n(n2)CC(CCOC(F)(F)F)O4)CO3)n1 (single isomer, unassigned) [213 (isomer A)]	≥ 3000
< 1000	O=C(N[C@H]1COc2ccc(COCC(F)(F)F)cc2C1)c1cc2n(n1)CC(CCOC(F)F)O2 (single isomer, unassigned) [215 (isomer A)]	1000 to 3000
< 1000	O=C(N[C@H]1COc2ccc(CCOC(F)F)cc2C1)c1cc2n(n1)CC(CCOC(F)F)O2 (single isomer, unassigned) [217 (isomer A)]	1000 to 3000
< 1000	O=C(N[C@H]1COc2ccc(CCOC(F)F)cc2C1)c1cc2n(n1)CC(CCOC(F)F)O2 (single isomer, unassigned) [217 (isomer B)]	< 1000
< 1000	O=C(N[C@H]1COc2ccc(CC(F)F)cc2C1)c1cc2n(n1)CC(CCOC(F)F)O2 (single isomer, unassigned) [219 (isomer B)]	1000 to 3000
